Data published in patent US9340590B2 (priority 2011, dated 2016).
pIC50: −log10 of the molar value. Read-outs that look alike come from different tables or passages of the source.

Legend:
Assay in all cases: cell-based
hNav1.3 = hNav1.3 (Homo sapiens, UniProt Q9NY46); conditions: IonWorks Quattro, use-dependent protocol, hNav1.3; read-out: IWQ Use Nav1.3
hNav1.5 = hNav1.5 (Homo sapiens, UniProt Q14524)
hNav1.7 = hNav1.7 (Homo sapiens, UniProt Q15858); type: cell-based
[1] = IonWorks Quattro, use-dependent protocol, hNav1.7, read-out: IWQ Use Nav1.7

Chain of hNav1.3 (Q9NY46 whole entry, looked up): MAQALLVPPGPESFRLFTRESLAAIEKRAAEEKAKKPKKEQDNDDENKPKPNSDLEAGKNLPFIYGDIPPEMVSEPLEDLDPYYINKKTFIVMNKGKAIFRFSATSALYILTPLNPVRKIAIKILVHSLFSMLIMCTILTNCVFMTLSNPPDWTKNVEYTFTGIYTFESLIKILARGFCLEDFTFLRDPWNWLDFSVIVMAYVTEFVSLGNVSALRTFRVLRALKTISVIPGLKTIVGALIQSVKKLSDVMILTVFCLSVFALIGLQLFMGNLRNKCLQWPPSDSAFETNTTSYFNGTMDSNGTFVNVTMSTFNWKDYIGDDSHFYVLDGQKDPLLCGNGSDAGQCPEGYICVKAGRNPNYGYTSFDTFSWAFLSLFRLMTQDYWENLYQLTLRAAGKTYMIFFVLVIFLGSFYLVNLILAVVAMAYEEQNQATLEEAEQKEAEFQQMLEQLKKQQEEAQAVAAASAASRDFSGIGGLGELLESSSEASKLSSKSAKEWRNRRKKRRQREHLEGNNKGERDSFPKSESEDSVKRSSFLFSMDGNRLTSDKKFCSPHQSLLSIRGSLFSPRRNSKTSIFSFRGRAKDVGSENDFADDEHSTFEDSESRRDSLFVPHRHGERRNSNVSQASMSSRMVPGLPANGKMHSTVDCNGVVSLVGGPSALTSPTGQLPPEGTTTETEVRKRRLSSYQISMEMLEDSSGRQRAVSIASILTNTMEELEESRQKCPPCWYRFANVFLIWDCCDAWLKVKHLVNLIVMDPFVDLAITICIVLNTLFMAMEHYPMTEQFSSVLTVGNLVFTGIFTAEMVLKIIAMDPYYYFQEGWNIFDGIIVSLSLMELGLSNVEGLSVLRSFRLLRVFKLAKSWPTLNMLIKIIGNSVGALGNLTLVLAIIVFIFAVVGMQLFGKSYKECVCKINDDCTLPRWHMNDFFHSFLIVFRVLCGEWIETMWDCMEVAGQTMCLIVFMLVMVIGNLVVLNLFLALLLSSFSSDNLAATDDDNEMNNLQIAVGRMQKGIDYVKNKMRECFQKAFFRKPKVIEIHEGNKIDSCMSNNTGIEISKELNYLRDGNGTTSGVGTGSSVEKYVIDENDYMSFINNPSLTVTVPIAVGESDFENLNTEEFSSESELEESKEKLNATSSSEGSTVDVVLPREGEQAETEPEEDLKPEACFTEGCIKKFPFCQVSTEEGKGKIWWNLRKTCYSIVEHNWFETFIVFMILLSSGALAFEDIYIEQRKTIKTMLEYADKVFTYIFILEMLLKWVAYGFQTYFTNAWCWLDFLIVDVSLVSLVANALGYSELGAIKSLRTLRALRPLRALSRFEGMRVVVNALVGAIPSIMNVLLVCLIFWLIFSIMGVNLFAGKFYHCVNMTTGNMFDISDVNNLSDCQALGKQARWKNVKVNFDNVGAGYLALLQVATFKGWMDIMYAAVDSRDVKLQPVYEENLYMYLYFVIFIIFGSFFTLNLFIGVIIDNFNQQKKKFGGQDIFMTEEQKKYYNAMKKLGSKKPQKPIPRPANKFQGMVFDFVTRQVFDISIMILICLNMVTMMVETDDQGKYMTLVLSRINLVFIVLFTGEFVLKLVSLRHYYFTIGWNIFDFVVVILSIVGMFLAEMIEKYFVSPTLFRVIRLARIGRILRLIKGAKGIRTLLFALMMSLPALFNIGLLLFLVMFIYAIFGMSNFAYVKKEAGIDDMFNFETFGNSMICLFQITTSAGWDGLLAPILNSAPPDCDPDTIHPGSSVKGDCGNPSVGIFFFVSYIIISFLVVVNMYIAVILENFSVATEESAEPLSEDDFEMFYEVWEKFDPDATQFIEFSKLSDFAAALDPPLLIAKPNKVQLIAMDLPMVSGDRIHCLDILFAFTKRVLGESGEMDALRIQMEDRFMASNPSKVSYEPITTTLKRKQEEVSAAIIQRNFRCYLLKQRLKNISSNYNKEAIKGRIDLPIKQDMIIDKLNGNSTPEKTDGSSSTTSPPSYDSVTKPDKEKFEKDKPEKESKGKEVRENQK
Chain of hNav1.7 (Q15858 whole entry, looked up): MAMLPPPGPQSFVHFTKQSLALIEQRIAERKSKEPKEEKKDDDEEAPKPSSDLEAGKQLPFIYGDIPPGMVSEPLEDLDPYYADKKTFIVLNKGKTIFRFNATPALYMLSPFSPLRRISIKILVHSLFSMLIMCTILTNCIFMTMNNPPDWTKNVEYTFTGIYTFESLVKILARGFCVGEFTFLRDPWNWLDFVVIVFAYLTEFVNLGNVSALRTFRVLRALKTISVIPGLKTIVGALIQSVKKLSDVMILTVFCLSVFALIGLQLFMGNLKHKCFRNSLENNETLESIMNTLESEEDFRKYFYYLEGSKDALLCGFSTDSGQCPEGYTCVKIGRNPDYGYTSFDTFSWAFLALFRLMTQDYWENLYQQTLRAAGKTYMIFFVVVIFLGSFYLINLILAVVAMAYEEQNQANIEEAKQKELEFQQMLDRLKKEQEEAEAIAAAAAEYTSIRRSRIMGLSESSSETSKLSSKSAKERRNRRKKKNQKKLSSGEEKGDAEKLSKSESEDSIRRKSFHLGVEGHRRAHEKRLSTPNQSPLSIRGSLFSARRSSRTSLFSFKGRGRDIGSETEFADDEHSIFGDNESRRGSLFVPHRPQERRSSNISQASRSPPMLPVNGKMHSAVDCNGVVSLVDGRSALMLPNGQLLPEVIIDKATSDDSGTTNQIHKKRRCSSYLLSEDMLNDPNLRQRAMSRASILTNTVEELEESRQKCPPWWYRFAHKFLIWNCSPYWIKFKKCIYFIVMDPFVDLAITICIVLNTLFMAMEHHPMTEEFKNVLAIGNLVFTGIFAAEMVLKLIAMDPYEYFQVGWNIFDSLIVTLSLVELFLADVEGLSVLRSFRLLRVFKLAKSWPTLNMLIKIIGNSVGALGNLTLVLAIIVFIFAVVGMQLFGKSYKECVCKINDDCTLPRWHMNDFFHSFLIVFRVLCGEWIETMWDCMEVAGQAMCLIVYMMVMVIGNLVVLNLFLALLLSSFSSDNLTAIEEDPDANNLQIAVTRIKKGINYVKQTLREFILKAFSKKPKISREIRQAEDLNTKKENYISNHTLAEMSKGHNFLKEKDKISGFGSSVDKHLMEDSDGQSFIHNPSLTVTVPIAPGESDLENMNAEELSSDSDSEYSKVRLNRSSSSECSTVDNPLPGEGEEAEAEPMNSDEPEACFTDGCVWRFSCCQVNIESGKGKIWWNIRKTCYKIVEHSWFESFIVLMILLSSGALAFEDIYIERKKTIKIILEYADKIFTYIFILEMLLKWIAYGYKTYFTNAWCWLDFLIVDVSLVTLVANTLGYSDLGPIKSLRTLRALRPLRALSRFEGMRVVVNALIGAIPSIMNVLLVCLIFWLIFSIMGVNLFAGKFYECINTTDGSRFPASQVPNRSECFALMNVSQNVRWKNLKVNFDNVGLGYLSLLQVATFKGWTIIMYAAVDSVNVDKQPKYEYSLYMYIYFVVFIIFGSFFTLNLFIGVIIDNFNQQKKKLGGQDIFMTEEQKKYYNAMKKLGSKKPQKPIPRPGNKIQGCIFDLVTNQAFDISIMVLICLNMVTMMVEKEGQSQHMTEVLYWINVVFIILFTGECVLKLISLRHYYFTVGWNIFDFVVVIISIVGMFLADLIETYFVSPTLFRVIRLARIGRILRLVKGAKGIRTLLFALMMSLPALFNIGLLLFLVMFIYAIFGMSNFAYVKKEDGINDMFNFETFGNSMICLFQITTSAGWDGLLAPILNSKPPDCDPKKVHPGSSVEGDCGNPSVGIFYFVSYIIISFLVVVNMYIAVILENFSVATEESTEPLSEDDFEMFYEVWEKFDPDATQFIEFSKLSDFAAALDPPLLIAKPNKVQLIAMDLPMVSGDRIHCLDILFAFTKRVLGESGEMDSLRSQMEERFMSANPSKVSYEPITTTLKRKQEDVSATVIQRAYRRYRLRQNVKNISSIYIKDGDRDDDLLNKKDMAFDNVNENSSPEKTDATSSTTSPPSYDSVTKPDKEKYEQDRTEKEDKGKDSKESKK

Compound	pIC50 (hNav1.3)	pIC50 (hNav1.5; IWQ Use Nav1.5)	pIC50 (hNav1.7)	pIC50 (hNav1.5; IonWorks Quattro, use-dependent protocol, hNav1.5, read-out: IWQ Use Nav1.5)	pIC50 (hNav1.7; [1])
CC[C@H](C)[C@@H]1NC(=O)[C@@H]2CSSC[C@@H]3NC(=O)[C@H](C(C)C)NC(=O)[C@H](CC(C)C)NC(=O)[C@H](CC(N)=O)NC(=O)[C@@H]4CCCN4C(=O)[C@H](CCCNC(=N)N)NC(=O)[C@H](CSSC[C@H](NC(=O)[C@@H](N)CC(=O)O)C(=O)N[C@@H](CC(C)C)C(=O)NCC(=O)N(C)[C@@H](CC(C)C)C(=O)N[C@@H](CCSC)C(=O)N[C@@H](CCCNC(=N)N)C(=O)N[C@@H](CCCCN)C(=O)N2)NC(=O)[C@H](CSSC[C@@H](C(=O)N[C@@H](CCCCN)C(=O)N[C@@H](Cc2ccc(O)cc2)C(=O)N[C@H](C(=O)N[C@@H](Cc2ccccc2)C(N)=O)C(C)C)NC(=O)[C@H](Cc2c[nH]c4ccccc24)NC(=O)[C@H](CCCCN)NC(=O)[C@H](Cc2cnc[nH]2)NC(=O)[C@H]([C@@H](C)O)NC(=O)[C@H](CCCNC(=N)N)NC(=O)[C@H](CO)NC3=O)NC(=O)[C@H](CCCCN)NC(=O)[C@H](CC(=O)O)NC(=O)[C@H](CC(N)=O)NC(=O)[C@H](CC(=O)O)NC(=O)[C@@H]2CCCN2C1=O [compound 688]	6.14	< 5.30	6.54	–	–
CC[C@H](C)[C@@H]1NC(=O)[C@@H]2CSSC[C@@H]3NC(=O)[C@H](C(C)C)NC(=O)[C@H](CC(C)C)NC(=O)[C@H](CC(N)=O)NC(=O)[C@@H]4CCCN4C(=O)[C@H](CCCNC(=N)N)NC(=O)[C@H](CSSC[C@H](NC(=O)[C@@H](N)CC(=O)O)C(=O)N[C@@H](CC(C)C)C(=O)NCC(=O)N[C@@H](Cc4ccccc4Cl)C(=O)N[C@@H](CCSC)C(=O)N[C@@H](CCCNC(=N)N)C(=O)N[C@@H](CCCCN)C(=O)N2)NC(=O)[C@H](CSSC[C@@H](C(=O)N[C@@H](CCCCN)C(=O)N[C@@H](Cc2ccc(O)cc2)C(=O)N[C@H](C(=O)N[C@@H](Cc2ccccc2)C(N)=O)C(C)C)NC(=O)[C@H](Cc2c[nH]c4ccccc24)NC(=O)[C@H](CCCCN)NC(=O)[C@H](Cc2c[nH]cn2)NC(=O)[C@H]([C@@H](C)O)NC(=O)[C@H](CCCNC(=N)N)NC(=O)[C@H](CO)NC3=O)NC(=O)[C@H](CCCCN)NC(=O)[C@H](CC(=O)O)NC(=O)[C@H](CC(N)=O)NC(=O)[C@H](CC(=O)O)NC(=O)[C@@H]2CCCN2C1=O [compound 689]	6.96	–	–	< 5.30	6.89
CC[C@H](C)[C@@H]1NC(=O)[C@@H]2CSSC[C@@H]3NC(=O)[C@H](C(C)C)NC(=O)[C@H](CC(C)C)NC(=O)[C@H](CC(N)=O)NC(=O)[C@@H]4CCCN4C(=O)[C@H](CCCNC(=N)N)NC(=O)[C@H](CSSC[C@H](NC(=O)[C@@H](N)CC(=O)O)C(=O)N[C@@H](CC(C)C)C(=O)NCC(=O)N[C@@H](CCc4ccccc4)C(=O)N[C@@H](CCSC)C(=O)N[C@@H](CCCNC(=N)N)C(=O)N[C@@H](CCCCN)C(=O)N2)NC(=O)[C@H](CSSC[C@@H](C(=O)N[C@@H](CCCCN)C(=O)N[C@@H](Cc2ccc(O)cc2)C(=O)N[C@H](C(=O)N[C@@H](Cc2ccccc2)C(N)=O)C(C)C)NC(=O)[C@H](Cc2c[nH]c4ccccc24)NC(=O)[C@H](CCCCN)NC(=O)[C@H](Cc2c[nH]cn2)NC(=O)[C@H]([C@@H](C)O)NC(=O)[C@H](CCCNC(=N)N)NC(=O)[C@H](CO)NC3=O)NC(=O)[C@H](CCCCN)NC(=O)[C@H](CC(=O)O)NC(=O)[C@H](CC(N)=O)NC(=O)[C@H](CC(=O)O)NC(=O)[C@@H]2CCCN2C1=O [compound 690]	6.74	< 5.30	–	–	7.05
